Where two headings read alike, the source gives them in different places. Marks after values point to notes of the source that are not given here.
Key:
[1] = tested on: K562 cells; experiment: Adhesion of K562 cells to FN in presence of BCR/ABL inhibitor; type: cell-based; details: at the concentrations of inhibitor used in cytotoxicity assays
Protocol: Cellular adhesion to FN is determined. In some experiments, cells are pre-incubated for 15 minutes with P4G9, P1D6, P4C10, B3B11, or isotype antibody controls prior to application to wells.
The BCR/ABL kinase is believed to be critical to the survival of CML cells through its effects on a number of signal transduction pathways. Inhibitors of this fusion protein show promise as apoptosis-inducing drugs in CML cells. BCR/ABL inhibition by relatively high doses of the tyrphostin AG957 can have negative effects on FN adhesion. At the concentrations of inhibitor used in cytotoxicity assays, the adhesion of K562 cells to FN is not affected by more than 20-40 percent.

[2] = tested on: BCR/ABL-associated tyrosine kinase activity; experiment: Anti-phosphotyrosine Western blotting; details: K562 cells, 20 μM, 4 hour treatment
[3] = tested on: K562 cells; experiment: MTT cytotoxicity assay, FN adhered vs suspension; type: cell-based
Protocol: Plastic 96-well Immunosorp plates (Nunc, Denmark) are coated with 50 μl (40 μg/ml) FN (Life Technologies) or BSA overnight. Cells are washed once and resuspended in serum-free RPMI 1640, then 2×10^4 (K562) cells are added to each FN coated well. 8×10^3 (K562) cells are added to BSA coated wells. Cells are incubated for 2 hours at 37° C., washed with serum free media, and put back into serum-containing media. Following 24 hours in a tissue culture incubator, drug or vehicle control is added to each well for 90 minutes, media is removed and replaced by drug-free media for 96 hours. In some experiments, the drug is allowed to remain in each well for 96 hours. 50 μl 3-[4,5-Dimethylthiazol-2-yl]-2,5-diphenyltetrazolium bromide; Thiazolyl blue (MTT dye) (Sigma) is added to each well for 4 hours, plates are centrifuged and each well aspirated. Dye is solubilized with 100 μl DMSO and plates are read at 540 nm on an automated microtiter plate reader. A blank well containing only medium and drug is also run as a control in all experiments. IC50 values are calculated by linear regression analysis of percent survival vs. drug concentration.
The MTT assay is used to detect differences in the drug sensitivity of FN adhered vs. suspension-cultured cells following a 90 minutes or 96 hours (continuous) exposure to either mitoxantrone or melphalan (L-phenylalanine mustard or LPAM). After a 96 hour period in a cell incubator, cell survival is determined by the ability of viable cells to reduce MTT dye to formazan. IC50 values are derived through linear regression of the log-linear dose-response plots for each cell line to each drug. Student's T-test is used to analyze differences in drug response using data collected from at least three different experiments. FIGS. 8A and 8B depict representative continuous exposure experiments using mitoxantrone and LPAM, respectively.

[4] = tested on: K562 cells; experiment: Annexin V apoptosis analysis, FN adhered vs suspension; type: cell-based
[5] = tested on: 8226/S cells; experiment: Adhesion of 8226 cells to fibronectin after bisphosphonate treatment; type: cell-based, human; details: 100 micromolar for 1.5 hours before plating
[6] = tested on: 8226/S myeloma cells; experiment: Annexin V flow cytometry analysis of apoptosis, FN-adhered vs non-adhered; type: cell-based, human
[7] = tested on: 8226/S myeloma cells; experiment: MTT cytotoxicity assay, FN-adhered vs BSA/non-adhered cells; type: cell-based, human; details: for IC50: Homo sapiens; for mean difference FN-adhered vs BSA: n=3, 1 hour drug exposure
[8] = tested on: K562/VLA-4 cells; experiment: Annexin V apoptosis, FN adhesion with integrin blocking antibodies; type: cell-based; details: 100 μM, 90 minutes
[9] = tested on: K562/pcDNA3.1 cells; experiment: as above; type: cell-based; details: 100 μM, 90 minutes
[10] = tested on: 8226/S; type: cell-based, human
[11] = α4 blocking antibody prior to FN adhesion
[12] = α5 blocking antibody prior to adhesion
[13] = 1 uM, 1 hour exposure, Annexin V 24 hours later

COC(=O)c1ccc(NCc2cc(O)ccc2O)cc1 [AG957]
effect on adhesion of K562 cells to FN [1]: 20-40% | BCR/ABL associated tyrosine phosphorylation [2]: completely abrogated | IC50 ([3]; FN adhered, continuous exposure (96 hours), read-out: Fibronectin mean IC50): 12.9 µM | Fold resistance (FN adhered over suspension) ([3]; continuous exposure (96 hours)): 3.6 fold | IC50 ([3]; continuous exposure (96 hours), read-out: Suspension mean IC50): 3.6 µM

Nc1ccn([C@@H]2O[C@H](CO)[C@@H](O)[C@@H]2O)c(=O)n1 [Ara-C]
% Control death ([4]; 100 μM, cont. exp.): 54.9* % | FN: mean death ([4]; 100 μM, cont. exp.): 6.2 ± 1.6% | Suspension: mean death ([4]; 100 μM, cont. exp.): 11.3 ± 5.5%

O=C(O)CN(CCN(CC(=O)O)CC(=O)O)CC(=O)O [EDTA]
effect on adhesion to fibronectin (FN) coated plates [5]: does not significantly affect cellular adhesion

N[C@@H](Cc1ccc(N(CCCl)CCCl)cc1)C(=O)O [LPAM, L-phenylalanine nitrogen mustard]
percentage of apoptotic cells, FN-adhered ([6]; 50 uM, 24 hours): 16.53% | percentage of apoptotic cells, non-adhered ([6]; 50 uM, 24 hours): 21.5% | IC50 ([7]; 1 h, read-out: mean IC50, cells grown on BSA): 30000 nM | IC50 ([7]; read-out: mean IC50, FN-adhered cells): 48000 nM | mean difference FN-adhered vs BSA [7]: 1.7 | IC50 ([3]; Homo sapiens, K562, 1.5 h, read-out: Fibronectin mean IC50): 190 µM | IC50 ([3]; Homo sapiens, K562, 1.5 h, read-out: Suspension mean IC50): 29.3 µM | IC50 ([3]; Homo sapiens, K562, 96 h, read-out: Fibronectin mean IC50): 57.3 µM | IC50 ([3]; Homo sapiens, K562, 96 h, read-out: Suspension mean IC50): 25.5 µM | Fold resistance (FN adhered over suspension) ([3]; continuous exposure (96 hours)): 2.25 fold | level of cytoprotection by FN adhesion (in comparison to drug treated suspension cells) ([8]; adhering through α4 and α5): 30.0±1.5% | level of cytoprotection by FN adhesion [8, 11]: 28.4±5.0% | level of cytoprotection by FN adhesion [8, 12]: 20.6±1.9% | level of cytoprotection by FN adhesion (in comparison to drug treated suspension cells) ([9]; adhered through α5 alone): 29.9±5.3% | level of cytoprotection by FN adhesion [9, 11]: 29.6±2.3% | level of cytoprotection by FN adhesion [9, 12]: 0±11.1% | effect on cell surface integrin expression [10]: no immediate effects | % Control death ([4]; 100 μM, 1 hr): 29.3* % | FN: mean death ([4]; 100 μM, 1 hr): 11.0 ± 8.3% | Suspension: mean death ([4]; 100 μM, 1 hr): 37.5 ± 24.0% | % Control death ([4]; 100 μM, cont. exp.): 58.5* % | FN: mean death ([4]; 100 μM, cont. exp.): 23.3 ± 6.4% | Suspension: mean death ([4]; 100 μM, cont. exp.): 39.8 ± 3.2%

O=C1c2c(O)ccc(O)c2C(=O)c2c(NCCNCCO)ccc(NCCNCCO)c21 [Mitoxantrone, mitoxantrone]
Fold resistance (FN adhered over suspension) ([3]; 90 min. exposure): 3.72 fold | Fold resistance (FN adhered over suspension) ([3]; 90 min. exposure, listed as mitoxantrone): approximately 3.7 fold | IC50 ([3]; Homo sapiens, K562, 1.5 h, 90 min. exposure, read-out: Suspension mean IC50): 0.206 µM | IC50 ([3]; Homo sapiens, K562, 1.5 h, FN adhered, 90 min. exposure, read-out: Fibronectin mean IC50): 0.767 µM | IC50 ([3]; Homo sapiens, K562, FN adhered, continuous exposure (96 hours), read-out: Fibronectin mean IC50): 0.327 µM | IC50 ([3]; Homo sapiens, K562, continuous exposure (96 hours), read-out: Suspension mean IC50): 0.0479 µM | Fold resistance (FN adhered over suspension) ([3]; continuous exposure (96 hours)): 6.83 fold | Fold resistance (FN adhered over suspension) ([3]; continuous exposure (96 hours), listed as mitoxantrone): 6.8 fold | % Control death ([4]; 10 μM, cont. exp.): 69.4* % | FN: mean death ([4]; 10 μM, cont. exp.): 29.7 ± 6.2% | Suspension: mean death ([4]; 10 μM, cont. exp.): 42.8 ± 8.4% | % Control death ([4]; 50 μM, 1 hr): 58.3* % | FN: mean death ([4]; 50 μM, 1 hr): 27.0 ± 9.4% | Suspension: mean death ([4]; 50 μM, 1 hr): 46.3 ± 8.4%

NCCC(O)(P(=O)(O)O)P(=O)(O)O [Pamidronate, 3-Amino-1-hydroxypropane-1,1-diphosphonic acid]
effect on adhesion to fibronectin (FN) coated plates [5]: effective in preventing FN adhesion

CC[C@]1(O)C[C@H]2CN(CCc3c([nH]c4ccccc34)[C@@](C(=O)OC)(c3cc4c(cc3OC)N(C=O)[C@H]3[C@@](O)(C(=O)OC)[C@H](OC(C)=O)[C@]5(CC)C=CCN6CC[C@]43[C@@H]65)C2)C1 [VCR, vincristine]
% Control death ([4]; 10 μM, cont. exp.): 70.2% | FN: mean death ([4]; 10 μM, cont. exp.): 12.5 ± 2.3% | Suspension: mean death ([4]; 10 μM, cont. exp.): 17.8 ± 6.4%

O=P(O)(O)C(O)(Cn1ccnc1)P(=O)(O)O [Zoledronate]
effect on adhesion to fibronectin (FN) coated plates [5]: effective in preventing FN adhesion

COc1cccc2c1C(=O)c1c(O)c3c(c(O)c1C2=O)C[C@@](O)(C(=O)CO)C[C@@H]3O[C@H]1C[C@H](N)[C@H](O)[C@H](C)O1 [doxorubicin]
percentage of apoptotic cells, FN-adhered [6, 13]: 16.3% | percentage of apoptotic cells, non-adhered controls [6, 13]: 40.3% | Response lower in FN-adhered cells compared to non-adhered controls ([7]; FIG. 1, one hour drug exposure): 12.6 fold | IC50 ([7]; 1 h, grown in suspension, one hour drug exposure, representative experiment FIG. 1, read-out: IC50, non-adhered cells): 85 nM | IC50 ([7]; 1 hour drug exposure, n=3, read-out: mean IC50, cells grown on BSA): 520 nM | IC50 ([7]; 24 hour pre-adhesion, 1 hour drug exposure, n=3, read-out: mean IC50, FN-adhered cells): 1630 nM | IC50 ([7]; FN-adhered 24 hours prior to one hour drug exposure, representative experiment FIG. 1, read-out: IC50, adhered cells): 485 nM | mean difference FN-adhered vs BSA [7]: 6.9 | survival (mitogenic effect) ([7]; subtoxic concentrations, FN-adhered cells): > 100% | effect on cell surface integrin expression ([10]; acute exposure, wide range of concentrations, 1-48 hours): no immediate effects

— patent US20030004140A1, “Methods for modulating cell-adhesion mediated drug resistance” (priority 2000, published 2003)
